# From a melting point compilation (Tetko et al.; mined from patent text by program, amines drawn as free bases though some values may be those of a salt)
row,melting point [°C],SMILES
1,175 to 177,c1ccc(-c2ncc(-c3ncco3)cn2)cc1
2,132 to 133,NC(=O)CC[C@H](NCc1ccccc1C(=O)O)C(=O)O
3,> 300,Cn1c(=O)[nH]c2cccc(I)c2c1=O
4,89 to 91,C[C@H]1C(=O)OCN1C(=O)OCc1ccccc1
5,155 to 159,O=c1cc(-c2ccccc2)oc2cc(OCCn3ccnc3)ccc12
6,158 to 161,O=C(c1ccccc1F)c1cc(Cl)ccc1C#CCN1C(=O)c2ccccc2C1=O
7,193 to 194,CC(=O)OCSC1=CCC2C3CCC4=CC(=O)C=CC4(C)C3(F)C(O)CC12C (centres undefined)
8,70 to 73,CC(CCNCCOc1cccc2[nH]ccc12)c1c[nH]c2ccccc12 (centres undefined)
9,165 to 167,COc1ccc(C(=O)c2[nH]c(=O)[nH]c2CN(C)C)cc1
10,105 to 106,CSc1ccc(C(CC2CCCC2)C(=O)O)cc1C(F)(F)F (centres undefined)
11,232,O=C(Nc1n[nH]c2c(F)cccc12)c1ccccc1
12,207 to 209,COc1nc(C)nc(NC(=O)NS(=O)(=O)c2ccccc2-n2nnnc2C)n1
13,234 to 236,CSc1ncc2cc(Oc3ccccc3F)c(=O)n(C)c2n1
14,211 to 214,Cn1c(COc2ccc(CC3SC(=O)NC3=O)cc2)nc2ccc(Oc3ccc(NC(=O)Nc4cccc5ccccc45)cc3)cc21 (centres undefined)
15,41 to 42,CN(C/C=C\c1ccc(Cl)cc1)Cc1cccc2ccccc12
16,178 to 179,COc1cccc(-c2ccc3c(c2)C(C)(C(F)(F)F)OC(=O)N3)c1 (centres undefined)
17,152 to 154,CCN(CC)CCN1C(=O)c2cc(Cl)c(S(N)(=O)=O)cc2C1=O
18,145 to 146,O=c1c(Br)cn(-c2cccc(C(F)(F)F)c2)nc1-c1ccnn1-c1ccccc1
19,54 to 56,Cc1cc(CCCCCOc2c(C)cc(-c3nc(C)no3)cc2C)on1
20,172,Cc1cc(CC(=O)N[C@H]2CC[C@H](CCN3CCN(c4nccc5c4CCO5)CC3)CC2)on1
21,80 to 83,O=C(O)c1ccc(SC(Cn2ccnc2)c2cccnc2)cc1 (centres undefined)
22,176 to 178,"CC(N=Cc1ccc(O)cc1)c1ccccc1 (single isomer, unassigned; (-))"

row,melting point [°C],SMILES
1,94 to 95,CCCOc1ccc(-c2scc(-c3ccccc3)c2CC(=O)NC(=N)N)cc1
2,294 to 298,O=C1Nc2ccc(Cl)cc2C1c1ncnc2nn(C3CCCCC3)cc12 (centres undefined)
3,196 to 197,CN1C(=O)CC[C@]2(C)c3ccc(Sc4nccc5sccc45)cc3CC[C@@H]12
4,73.6 to 76,CCCN(CCC)c1c(CC)nn2c(-c3ccc(OC)cc3Cl)cccc12
5,62 to 65,C=CCCc1sc(-c2nccs2)c2c1C(=O)CC(C)(C)C2
6,110 to 111,CC(C)Nc1cccnc1N1CCN(C(=O)c2ccc(C(=O)NCCCO)cc2)CC1
7,212 to 214,O=CNNc1ccc(NC(=S)Nc2ccc(NNC=O)cc2)cc1
8,235 to 237,CCOC(=O)c1cc2c3c(c(-c4ccccc4Cl)cc2n1CCCOC)C(=O)NC3=O
9,158 to 160,CCC1(CC)c2cc(I)ccc2-c2ccc(-c3nc4ccccc4s3)cc21
10,80.5 to 81.5,O=C(OCc1ccccc1)c1ccc(Br)c(OCc2ccccc2)c1
11,116,COc1c(Cl)nc(N2CCOCC2)nc1Cl
12,176 to 178,CC(Oc1ccc(Oc2cnc3cc(Cl)ccc3n2)cc1)C(=O)Nc1ccc(C(F)(F)F)cc1 (centres undefined)
13,248 to 249,CSC1=NC(=O)C(=Cc2cc(C(C)(C)C)c(O)c(C(C)(C)C)c2)N1
14,88 to 94,Cc1cccc(NC(=O)N2CCN(CCc3ccc(-c4cccc(N)n4)cc3)CC2)c1
15,146 to 148,CCN(CC)c1nc(C)[nH]c2c(-c3ccc(Cl)cc3Cl)nc(C)c1-2
16,158 to 159,CCC1C(=O)N(c2ccccc2)C(=S)N1c1ccc(Oc2ccccc2)cc1 (centres undefined)
17,76 to 79,CCCCC1(CCCC)CS(=O)(=O)c2ccc(N(C)C)cc2[C@@H](c2ccc(OCCCCC(=O)O)cc2)[C@H]1O
18,213 to 216,O=C(Nc1n[nH]c(=S)s1)N[C@@H](Cc1ccccc1)C(=O)N1CCOCC1
19,213 to 215,Cn1c(/C=C/C(=O)Cl)c(-c2ccccc2)c2ccccc2c1=O
20,169 to 171,CC=Cc1cccc2c(=O)c(C)c(-c3ccc(OC)cc3)oc12
21,160 to 163,CCCCCCN(C[C@H]1CC[C@H](CN(CCCCCC)C(=O)Nc2ccc(N(C)C)cc2)CC1)C(=O)Nc1ccc(N(C)C)cc1
22,213 to 215,Cc1cc(C)nc(COc2ccc3c(c2)c(SC(C)(C)C)c(CC(C)(C)C(=O)O)n3Cc2ccc(Cl)cc2)n1

row,melting point [°C],SMILES
1,190 to 193,CNc1nc(Cl)cc(NS(=O)(=O)c2cccc(C(F)(F)F)c2)n1
2,205 to 207,CC(=O)c1c(C)[nH]c(-c2ccncc2)c1C
3,122 to 123,N#CCOc1ccc(F)c(C(N)=O)c1F
4,102 to 103,COc1ccc(COC(=O)C2N=CSCC2(C)O)cc1 (centres undefined)
5,224 to 225,COc1ccc(-c2cc(-c3nccs3)c(=O)n(C)c2-c2ccncc2)cc1
6,100 to 112,COc1ccc(C2(O)CCN(c3ccc(OC)nc3-c3ccc(OC(F)(F)F)cc3)CC2)cc1
7,124 to 136,CCCCCN(CCC12CC3CC(CC(C3)C1)C2)C(=O)NCC(Cc1ccncc1)Cc1ccncc1
8,137 to 139,COc1ccc2c3c(c(=O)oc2c1)CN(Cc1ccccc1Cl)CC3
9,174 to 176,CC(C)c1cc2c(c3c1C(=O)N(CCl)S3(=O)=O)OCO2
10,196 to 198,COc1cc(N)c(Cl)cc1C(=O)NCC1CCN(CCCCCNC(=O)c2ccc(Cl)cc2)CC1
11,82 to 83,COC(=O)Nc1nc2ccccc2n1C(=O)NCC1(C)CC(NC(=O)n2c(NC(=O)OC)nc3ccccc32)CC(C)(C)C1 (centres undefined)
12,172 to 174,CCCCCCCN(CC)C(=O)Cc1ccc(N)cc1
13,36 to 37,FC(F)(F)c1nnc(SCc2ccccc2Cl)s1
14,301 to 303,COC(=O)c1cc(-c2ccc3c(=O)[nH]c(=O)[nH]c3n2)ccc1OC
15,176 to 178,CCOC(=O)N[C@@H]1[C@H](O)C(=O)N2[C@H](c3ccccc3)OC[C@@H]12
16,61 to 64,CCCc1cc(OCc2ccc(-c3ccccc3-c3nnn(C(c4ccccc4)(c4ccccc4)c4ccccc4)n3)cc2)c(C(=O)OC)c(C)n1
17,175 to 176,Cc1oc(-c2ccccc2)nc1CC=Cc1ccc(CCC2OC(=O)NC2=O)cc1 (centres undefined)
18,197 to 199,OCc1ccc(-c2ccc3nc(-c4ccc(Cl)cc4)cn3c2)o1
19,56 to 57,Clc1nc(SCc2ccccc2)ncc1Br
20,173 to 176,CN(N)C(=O)NC1c2ccccc2Oc2ccccc21

row,SMILES,melting point [°C]
1,COC(=O)c1cc(C(=O)OC)n(-c2ccc(Cl)cc2C(=O)c2ccccc2)n1,118 to 120
2,O=[N+]([O-])c1cc(Cl)c([N+](=O)[O-])c(Cl)c1,109 to 112
3,CNC(=O)C1(Cl)CC1(Cl)Cl (centres undefined),71 to 72
4,CC(C)(C)NC(=O)c1nn(-c2ccc(Cl)cc2F)c2c1C1CCC2C1 (centres undefined),148 to 152
5,C[C@@H]1C[C@](C)(O)[C@H](C)N1c1ccc(C#N)c(C(F)(F)F)c1,115 to 117
